Test results taken from article PMC8835733, “PaOctβ2R: Identification and Functional Characterization of an Octopamine Receptor Activating Adenylyl Cyclase Activity in the American Cockroach Periplaneta americana” (International Journal of Molecular Sciences, 2022).
Values joined by “and” are separate entries in the source; they are usually repeats but may differ in a detail not shown here. Equal values may be shown once. Read-outs that look alike come from different tables or passages of the source.

Assays:
[1] = system: PaOctβ2R-HA; assay: Antagonist inhibition of octopamine-activated PaOctβ2R-HA (cAMP via CNG channel / Fluo-4); format: cell-based, Periplaneta americana; details: 1 × 10^−9 M octopamine; for Maximal Inhibition of octopamine-activated PaOctβ2R-HA activity: 1 × 10^−4 M IBMX
Description: (§1) The reduction of cellular cAMP production, monitored as a decrease in Fluo-4 fluorescence (see Section 4.9), was quantified and normalized to the value obtained without adding antagonists (=100%). Normalized data were used to construct inhibitor concentration-response curves.
(§2) Ligand concentrations that led to half-maximal inhibition of PaOctβ2R-HA (IC50) were determined from the concentration-response curves.
(§3) A stably transfected cell line was established to examine PaOctβ2R-HA receptor activity by Ca^2+ imaging. Control measurements were performed in the parental (flpTM) cell line. Changes in [cAMP]i were registered indirectly via co-expressed CNG channels that are opened by cAMP and cause an influx of extracellular Ca^2+ [18, 26, 91]. Changes in [Ca^2+]i were monitored with the Ca^2+-sensitive fluorescent dye Fluo-4. Cells were grown in 96-well dishes to a density of approximately 2 × 10^4 cells per well and were loaded at room temperature with Fluo-4 AM as described previously. After 90 min, the loading solution was substituted for dye-free extracellular solution (ECS; 120 mM NaCl, 5 mM KCl, 2 mM MgCl2, 2 mM CaCl2, 10 mM HEPES, and 10 mM glucose, pH 7.4 (NaOH)) containing 100 µM 3-isobutyl-1-methylxanthine (IBMX; Sigma-Aldrich/Merck, Darmstadt, Germany) as an inhibitor of cell-endogenous phosphodiesterases. The plate was transferred into a fluorescence reader (FLUOstar Omega, BMG Labtech, Ortenberg, Germany) to monitor Fluo-4 fluorescence. The excitation wavelength was 485 nm. Fluorescence emission was detected at 520 nm. Concentration series of various biogenic amines and synthetic receptor ligands were added once Fluo-4 fluorescence had reached a stable value in each well. The changes in Fluo-4 fluorescence were recorded automatically. Concentration-response curves were established from at least three independent experiments. Data points were derived from four-fold or eightfold determination.

[2] = system: PaOctβ2R-HA; assay: Antagonist inhibition of tyramine-activated PaOctβ2R-HA (cAMP via CNG channel / Fluo-4); format: cell-based, Periplaneta americana; details: 1 × 10^−7 M tyramine; for Maximal Inhibition of tyramine-activated PaOctβ2R-HA activity: 1 × 10^−4 M IBMX
Description: as §1, §2, §3

[3] = system: PaOctβ2R-HA; assay: Agonist-evoked cAMP production in PaOctβ2R-HA-expressing flpTM cells (CNG channel / Fluo-4 Ca2+ imaging); format: cell-based, Periplaneta americana; details: for increase in [cAMP]i in PaOctβ2R-HA-expressing cells: biogenic amines at 0.1 and 1 µM; for increase in [cAMP]i in PaOctβ2R-HA-expressing cells / concentration at which the concentration-response curve saturated: 100 µM IBMX; for concentration at which the concentration-response curve saturated: flpTM + PaOctβ2R-HA cells
Source text: (§4) These insect receptors are preferentially activated by octopamine and to a certain extent by tyramine as well. In a first series of experiments, we thus examined the ability of different biogenic amines, i.e., octopamine, tyramine, dopamine, histamine, and serotonin, to evoke PaOctβ2R-HA-dependent cAMP production in receptor-expressing as well as in the parental (flpTM) cell line. Increasing [cAMP]i cause opening of the CNG channels and influx of extracellular Ca^2+ which was detected by the Ca^2+-sensitive dye FLUO-4.
(§5) In a next step, concentration series of octopamine and tyramine ranging from 10^−12 M to 10^−7 M for octopamine and 10^−11 M to 10^−6 M for tyramine were applied to the cell lines. The fluorescence signals were normalized to values obtained in flpTM + PaOctβ2R-HA cells with the highest ligand concentration (=100%) and used to calculate concentration response curves for the receptor (Figure 6; Table 1).
(§6) Cells were transfected with 10 µg of the pcPaOctβ2R-HA construct by a modified calcium phosphate method following a previously established protocol. Transfected cells were selected in the presence of the antibiotics G418 (1 mg/mL) and hygromycin (100 µg/mL).
as §3

[4] = target: (UniProt Z9G3U5DLY1); assay: Antagonist inhibition of octopamine-activated PaOctβ2R-HA (cAMP via CNG channel / Fluo-4); format: cell-based, Periplaneta americana; details: 1 × 10^−9 M octopamine, 1 × 10^−4 M IBMX
Description: as §1, §2, §3

[5] = target: (UniProt Z9G3U5DLY1); assay: Antagonist inhibition of tyramine-activated PaOctβ2R-HA (cAMP via CNG channel / Fluo-4); format: cell-based, Periplaneta americana; details: 1 × 10^−7 M tyramine, 1 × 10^−4 M IBMX
Description: as §1, §2, §3

[6] = system: flpTM cells; assay: Control measurements in parental (non-transfected) flpTM cells (cAMP via CNG channel / Fluo-4); format: cell-based, human; details: concentration series of octopamine or tyramine; 100 µM IBMX
Source text: as §4, with “FLUO-4. No stimulation of adenylyl cyclase activity was recorded in flpTM cells when incubated with 0.1 or 1 µM concentrations of biogenic amines (Figure 5A). […]” for “FLUO-4.”
A stably transfected cell line was established to examine PaOctβ2R-HA receptor activity by Ca^2+ imaging. […] Changes in [Ca^2+]i were monitored with the Ca^2+-sensitive fluorescent dye Fluo-4. […] The plate was transferred into a fluorescence reader (FLUOstar Omega, BMG Labtech, Ortenberg, Germany) to monitor Fluo-4 fluorescence. […] Fluorescence emission was detected at 520 nm. Concentration series of various biogenic amines and synthetic receptor ligands were added once Fluo-4 fluorescence had reached a stable value in each well. The changes in Fluo-4 fluorescence were recorded automatically. […]

[7] = target: (UniProt Z9G3U5DLY1); assay: Agonist-evoked cAMP production in PaOctβ2R-HA-expressing flpTM cells (CNG channel / Fluo-4 Ca2+ imaging); format: cell-based, Periplaneta americana; details: 100 µM IBMX
Source text: as §4, §5, §6, §3

[8] = read-out: IC50, half-maximal inhibition of octopamine-activated PaOctβ2R-HA
[9] = read-out: pIC50 ± SD, octopamine-activated PaOctβ2R-HA (converted)
[10] = read-out: IC50, half-maximal inhibition of tyramine-activated PaOctβ2R-HA
[11] = read-out: pIC50 ± SD, tyramine-activated PaOctβ2R-HA (converted)
[12] = mean of n = 5 experiments, flpTM + PaOctβ2R-HA cells, read-out: EC50, mean value for half-maximal stimulation of PaOctβ2R-HA
[13] = mean of n = 5 experiments, flpTM + PaOctβ2R-HA cells, read-out: pEC50 ± SD, half-maximal stimulation of PaOctβ2R-HA (converted)
[14] = single representative eight-fold determination, read-out: EC50, half maximal activation of PaOctβ2R-HA (representative experiment, Figure 6)

**Q.** How did the “effect on octopamine-stimulated PaOctβ2R-HA activity (in words)” value [1] turn out when `COc1ccc2[nH]cc(CCN)c2c1` [5-MT, 5-methoxytryptamine] was run?
**A.** did not impair

**Q.** What about the “effect on tyramine-stimulated PaOctβ2R-HA activity (in words)” value [2] of the same compound?
**A.** did not impair

**Q.** `CCCN(CCC)C1CCc2cccc(O)c2C1` (centres unmarked) [8-OH-DPAT, 8-hydroxy-2-(dipropylamino)tetralin] was tested. Which “effect on octopamine-stimulated PaOctβ2R-HA activity (in words)” value [1] did it give?
**A.** did not impair

**Q.** What about the “effect on tyramine-stimulated PaOctβ2R-HA activity (in words)” value [2] of the same compound?
**A.** did not impair

**Q.** Which “increase in [cAMP]i in PaOctβ2R-HA-expressing cells” value (from here on “increase in [cAMP]i”) [3] does the source give for `NCCc1ccc(O)c(O)c1` [dopamine] here?
**A.** Neither dopamine, histamine nor serotonin caused an increase in [cAMP]i

**Q.** Which results are given for `NC1=NCC2c3ccccc3Cc3ccccc3N12` (centres unmarked) [epinastine]?
**A.** Maximal Inhibition of octopamine-activated PaOctβ2R-HA activity [1]: 100%; IC50 [4, 8]: ~12 nM and 12 nM; IC50 [4, 9]: 11.4 nM; Maximal Inhibition of tyramine-activated PaOctβ2R-HA activity [2]: 100%; IC50 [5, 10]: ~13 nM and 13 nM; IC50 [5, 11]: 11.2 nM

**Q.** `NCCc1c[nH]cn1` [histamine] was tested. Which “increase in [cAMP]i” value [3] did it give?
**A.** Neither dopamine, histamine nor serotonin caused an increase in [cAMP]i

**Q.** Which results are given for `O=C(c1ccc(F)cc1)C1CCN(CCn2c(=O)[nH]c3ccccc3c2=O)CC1` [ketanserin]?
**A.** Maximal Inhibition of octopamine-activated PaOctβ2R-HA activity [1]: 80%; Maximal Inhibition of octopamine-activated PaOctβ2R-HA activity ([1]; listed as Ketanserin): approximately 80%; IC50 [4, 8]: 5120 nM; IC50 [4, 9]: 5120 nM; Maximal Inhibition of tyramine-activated PaOctβ2R-HA activity [2]: 50%; IC50 [5, 10]: 1680 nM; IC50 [5, 11]: 1710 nM

**Q.** Which “change in the fluorescence signal in non-transfected flpTM cells” value [6] does the source give for `NCC(O)c1ccc(O)cc1` (centres unmarked) [octopamine] here?
**A.** no change in the fluorescence signal was observed

**Q.** And the “increase in [cAMP]i” value [3]?
**A.** showed increasing [cAMP]i

**Q.** What about the “concentration at which the concentration-response curve saturated” value [3] of the same compound?
**A.** ≥ 10^−9 M

**Q.** And the “preference (selectivity) of PaOctβ2R-HA for octopamine over tyramine” value ([3]; octopamine vs tyramine potency)?
**A.** 100 fold and ~ 100 fold

**Q.** And the EC50 [7, 12]?
**A.** 0.467 nM

**Q.** And the EC50 [7, 13]?
**A.** 0.447 nM

**Q.** And the EC50 [7, 14]?
**A.** 0.297 nM

**Q.** With `Cc1ccc(N(CC2=NCCN2)c2cccc(O)c2)cc1` [phentolamine] as the compound, how does the “Maximal Inhibition of octopamine-activated PaOctβ2R-HA activity” value [1] read?
**A.** 100%

**Q.** What about the IC50 [4, 8] of the same compound?
**A.** 257 nM

**Q.** And the IC50 [4, 9]?
**A.** 247 nM

**Q.** And the “Maximal Inhibition of tyramine-activated PaOctβ2R-HA activity” value [2]?
**A.** 100%

**Q.** And the IC50 [5, 10]?
**A.** 256 nM

**Q.** What about the IC50 [5, 11] of the same compound?
**A.** 255 nM

**Q.** Which “increase in [cAMP]i” value [3] does the source give for `NCCc1c[nH]c2ccc(O)cc12` [serotonin, 5-hydroxytryptamine] here?
**A.** Neither dopamine, histamine nor serotonin caused an increase in [cAMP]i

**Q.** Which “change in the fluorescence signal in non-transfected flpTM cells” value [6] does the source give for `NCCc1ccc(O)cc1` [tyramine] here?
**A.** no change in the fluorescence signal was observed

**Q.** What about the “increase in [cAMP]i” value [3] of the same compound?
**A.** showed increasing [cAMP]i

**Q.** What about the “concentration at which the concentration-response curve saturated” value [3] of the same compound?
**A.** ≥ 10^−7 M

**Q.** And the EC50 [7, 12]?
**A.** 43 nM

**Q.** And the EC50 [7, 13]?
**A.** 40.7 nM

**Q.** And the EC50 [7, 14]?
**A.** 36.8 nM

**Q.** Which results are given for `COC(=O)[C@@H]1[C@H]2C[C@H]3c4[nH]c5ccccc5c4CCN3C[C@@H]2CC[C@@H]1O` [yohimbine]?
**A.** effect on octopamine-stimulated PaOctβ2R-HA activity (in words) [1]: did not impair; effect on tyramine-stimulated PaOctβ2R-HA activity (in words) [2]: did not impair
